Results published in ChEMBL document CHEMBL3745707 (Bioorg Med Chem, 2016).

Columns and labels:
[1] = tested on: K562; test: cells; type: functional, cell-based; details: Homo sapiens, K562, 72 h
[2] = cells; type: functional, cell-based; details: Homo sapiens, DU-145, 72 h
[3] = biological target: Serine/threonine-protein kinase PLK2 (Homo sapiens, UniProt Q9NYY3); test: Inhibition of human recombinant PLK2 using recombinant dephosphorylated bovine alpha- casein as substrate after 30 mins by scintillation counting analysis in presence of gamma-32P-ATP
Sequence of Serine/threonine-protein kinase PLK2 (Q9NYY3 whole entry): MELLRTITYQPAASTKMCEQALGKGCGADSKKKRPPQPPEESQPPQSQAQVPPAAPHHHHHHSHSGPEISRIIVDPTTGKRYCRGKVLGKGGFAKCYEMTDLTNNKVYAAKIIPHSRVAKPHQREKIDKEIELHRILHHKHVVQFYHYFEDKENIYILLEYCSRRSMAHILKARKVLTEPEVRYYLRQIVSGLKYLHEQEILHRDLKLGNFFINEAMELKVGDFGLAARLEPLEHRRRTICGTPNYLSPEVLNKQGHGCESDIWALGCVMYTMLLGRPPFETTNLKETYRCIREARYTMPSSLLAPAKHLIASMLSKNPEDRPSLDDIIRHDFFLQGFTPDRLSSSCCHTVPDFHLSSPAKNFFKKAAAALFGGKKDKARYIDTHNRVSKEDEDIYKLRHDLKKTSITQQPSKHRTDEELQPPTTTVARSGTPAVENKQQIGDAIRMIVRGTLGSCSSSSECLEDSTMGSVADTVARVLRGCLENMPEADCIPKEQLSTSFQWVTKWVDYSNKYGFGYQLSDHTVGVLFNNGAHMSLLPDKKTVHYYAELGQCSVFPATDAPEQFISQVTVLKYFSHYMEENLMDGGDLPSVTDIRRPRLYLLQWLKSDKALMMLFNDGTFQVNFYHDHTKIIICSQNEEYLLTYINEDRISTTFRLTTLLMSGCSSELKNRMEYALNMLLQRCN

Row | SMILES | IC50 [1] [µM] | IC50 [2] [µM] | IC50 [3] [µM]
1 | Cn1c(=O)c(S(=O)(=O)c2ccc(F)cc2[N+](=O)[O-])cc2cnc(Nc3ccc4[nH]ccc4c3)nc21 | 0.9 | 1.5 | –
2 | Cn1c(=O)c(S(=O)(=O)c2ccccc2)cc2cnc(Nc3cnc4[nH]ccc4c3)nc21 | 5 | 1 | –
3 | Cn1c(=O)c(C(=O)Nc2ccc(F)cc2)cc2cnc(Nc3ccc4[nH]ccc4c3)nc21 | 5 | 5 | –
4 | Cn1c(=O)c(S(=O)(=O)c2ccc(F)cc2F)cc2cnc(Nc3ccccn3)nc21 | 35 | 75 | –
5 | Cn1c(=O)c(S(=O)(=O)c2ccc(Cl)cc2)cc2cnc(Nc3ccc(Cl)cc3)nc21 | 15 | 15 | –
6 | Cc1ccc(S(=O)(=O)c2cc3cnc(Nc4cnc5[nH]ccc5c4)nc3n(C)c2=O)cc1 | 15 | 25 | –
7 | Cc1ccc(S(=O)(=O)c2cc3cnc(Nc4cnc5c(c4)CC(=O)N5)nc3n(C)c2=O)cc1 | 15 | 15 | –
8 | Cn1c(=O)c(S(=O)(=O)c2ccc(F)cc2F)cc2cnc(Nc3ccc4cc[nH]c4c3)nc21 | 5 | 5 | –
9 | Cn1c(=O)c(S(=O)(=O)c2ccc(F)cc2F)cc2cnc(Nc3cnc4[nH]ccc4c3)nc21 | 0.75 | 0.75 | –
10 | Cn1c(=O)c(S(=O)(=O)Nc2ccc(F)cc2)cc2cnc(Nc3ccc4[nH]ccc4c3)nc21 | 5 | 5 | –
11 | Cn1c(=O)c(S(=O)(=O)c2ccc(F)cc2F)cc2cnc(Nc3ccc4c(c3)C(=O)C(=O)N4)nc21 | 30 | 75 | –
12 | Cn1c(=O)c(S(=O)(=O)c2ccc(F)cc2F)cc2cnc(Nc3ccc4occc4c3)nc21 | 15 | 15 | –
13 | Cn1c(=O)c(S(=O)(=O)c2ccc(F)cc2)cc2cnc(Nc3ccc4cc[nH]c4c3)nc21 | 10 | 10 | –
14 | Cn1c(=O)c(S(=O)(=O)c2ccc(F)cc2)cc2cnc(Nc3ccc4occc4c3)nc21 | 5 | 5 | –
15 | O=c1c(S(=O)(=O)c2ccc(F)cc2F)cc2cnc(Nc3ccc4[nH]ccc4c3)nc2n1C1CCCC1 | 5 | 5 | –
16 | Cn1c(=O)c(S(=O)(=O)c2ccc(Cl)cc2)cc2cnc(Nc3cnc4ccccc4c3)nc21 | 15 | 15 | –
17 | CN1CCN(c2ccc(Nc3ncc4cc(S(=O)(=O)c5ccc(F)cc5F)c(=O)n(C)c4n3)cc2)CC1 | 5 | 5 | –
18 | Cn1c(=O)c(S(=O)(=O)c2ccc(Cl)cc2)cc2cnc(Nc3ccc4[nH]ccc4c3)nc21 | 0.1 | 0.25 | –
19 | Cn1c(=O)c(S(=O)(=O)c2ccc(F)cc2F)cc2cnc(Nc3cccc4[nH]ccc34)nc21 | 1.5 | 0.75 | –
20 | Cn1c(=O)c(S(=O)(=O)c2ccc(F)cc2F)cc2cnc(Nc3ccc4[nH]ncc4c3)nc21 | 50 | 30 | –
21 | Cn1c(=O)c(S(=O)(=O)c2ccc(N)cc2F)cc2cnc(Nc3ccc4[nH]ccc4c3)nc21 | 1.5 | 8 | –
22 | Cn1c(=O)c(S(=O)(=O)c2ccc(F)cc2F)cc2cnc(Nc3ccc4[nH]c(C(=O)O)cc4c3)nc21 | 10 | 10 | –

Row | SMILES | IC50 [1] [µM] | IC50 [2] [µM] | IC50 [3] [µM]
23 | O=c1[nH]c2nc(Nc3ccc4[nH]ccc4c3)ncc2cc1S(=O)(=O)c1ccc(F)cc1F | 15 | 15 | –
24 | Cn1c(=O)c(S(=O)(=O)c2ccc([N+](=O)[O-])cc2F)cc2cnc(Nc3ccc4[nH]ccc4c3)nc21 | 0.2 | 0.4 | –
25 | CCn1c(=O)c(S(=O)(=O)c2ccc(F)cc2F)cc2cnc(Nc3ccc4[nH]ccc4c3)nc21 | 0.75 | 0.75 | –
26 | Cc1ccc(S(=O)(=O)c2cc3cnc(Nc4ccc5[nH]ccc5c4)nc3n(C)c2=O)cc1 | 0.75 | 0.75 | –
27 | Cn1c(=O)c(S(=O)(=O)c2ccccc2)cc2cnc(Nc3ccc4ncccc4c3)nc21 | 100 | 50 | –
28 | Cn1ccc2cc(Nc3ncc4cc(S(=O)(=O)c5ccc(F)cc5F)c(=O)n(C)c4n3)ccc21 | 0.75 | 0.75 | –
29 | COc1ccc(S(=O)(=O)c2cc3cnc(Nc4cccc5[nH]ccc45)nc3n(C)c2=O)cc1 | 5 | 5 | –
30 | Cn1ccc2cc(Nc3ncc4cc(S(=O)(=O)c5ccc(Cl)cc5Cl)c(=O)n(C)c4n3)ccc21 | 0.75 | 0.75 | –
31 | Cn1c(=O)c(S(=O)(=O)c2ccc(F)cc2N)cc2cnc(Nc3ccc4[nH]ccc4c3)nc21 | 2 | 3 | –
32 | Cn1c(=O)c(S(=O)(=O)c2ccc(F)cc2F)cc2cnc(Nc3ccncn3)nc21 | 30 | 50 | –
33 | Cn1c(=O)c(S(=O)(=O)Nc2ccc(F)cc2F)cc2cnc(Nc3ccc4[nH]ccc4c3)nc21 | 5 | 5 | –
34 | COC(=O)Cn1c(=O)c(S(=O)(=O)c2ccc(F)cc2F)cc2cnc(Nc3ccc4[nH]ccc4c3)nc21 | 5 | 10 | –
35 | COc1ccc(S(=O)(=O)c2cc3cnc(Nc4ccc5[nH]ccc5c4)nc3n(C)c2=O)cc1 | 0.3 | 0.5 | 0.35
36 | Cn1c(=O)c(S(=O)(=O)c2ccc(F)cc2F)cc2cnc(NCc3ccc4[nH]ccc4c3)nc21 | 75 | 100 | –
37 | COc1ccc(Nc2ncc3cc(S(=O)(=O)c4ccc(C)cc4)c(=O)n(C)c3n2)cc1 | 75 | 100 | –
38 | Cc1cc2cc(Nc3ncc4cc(S(=O)(=O)c5ccc(F)cc5F)c(=O)n(C)c4n3)ccc2[nH]1 | 0.75 | 0.75 | –
39 | Cn1c(=O)c(C(=O)Nc2ccc(F)cc2F)cc2cnc(Nc3ccc4[nH]ccc4c3)nc21 | 5 | 5 | –
40 | Cn1c(=O)c(S(=O)(=O)c2ccc(F)cc2)cc2cnc(Nc3cccc4[nH]ccc34)nc21 | 0.75 | 0.75 | 6.08
41 | O=c1c(S(=O)(=O)c2ccc(F)cc2F)cc2cnc(Nc3ccc4[nH]ccc4c3)nc2n1C1CCCCC1 | 10 | 10 | –
42 | COC(=O)Cn1ccc2cc(Nc3ncc4cc(S(=O)(=O)c5ccc(F)cc5F)c(=O)n(C)c4n3)ccc21 | 5 | 5 | –
43 | Cn1c(=O)c(S(=O)(=O)c2ccc(Cl)cc2)cc2cnc(Nc3cccc4[nH]ccc34)nc21 | 5 | 5 | –
44 | COc1ccc(Nc2ncc3cc(S(=O)(=O)c4ccc(Cl)cc4)c(=O)n(C)c3n2)cc1 | 15 | 30 | –

Row | SMILES | IC50 [1] [µM] | IC50 [2] [µM] | IC50 [3] [µM]
45 | O=c1c(S(=O)(=O)c2ccc(F)cc2F)cc2cnc(Nc3ccc4[nH]ccc4c3)nc2n1CC1CC1 | 1 | 1 | –
46 | Cn1c(=O)c(S(=O)(=O)c2ccc(C(=O)O)cc2)cc2cnc(Nc3ccc4[nH]ccc4c3)nc21 | 5 | 10 | –
47 | Cc1ccc(S(=O)(=O)c2cc3cnc(Nc4cccc5[nH]ccc45)nc3n(C)c2=O)cc1 | 5 | 10 | –
48 | Cc1ccc(S(=O)(=O)c2cc3cnc(Nc4cccc5cccnc45)nc3n(C)c2=O)cc1 | 10 | 10 | –
49 | Cn1c(=O)c(S(=O)(=O)c2ccc(Cl)cc2)cc2cnc(Nc3cnc4[nH]ccc4c3)nc21 | 5 | 5 | –
50 | Cc1ccc(S(=O)(=O)c2cc3cnc(Nc4ccc5cc[nH]c5c4)nc3n(C)c2=O)cc1 | 15 | 15 | –
51 | Cn1c(=O)c(S(=O)(=O)c2ccc(F)cc2)cc2cnc(Nc3cnc4[nH]ccc4c3)nc21 | 0.75 | 0.5 | –
52 | Cn1c(=O)c(S(=O)(=O)c2ccc(F)cc2)cc2cnc(Nc3ccc4[nH]cnc4c3)nc21 | 10 | 10 | –
53 | Cc1ccc(S(=O)(=O)c2cc3cnc(Nc4ccc5ncccc5c4)nc3n(C)c2=O)cc1 | 10 | 10 | –
54 | Cn1c(=O)c(S(=O)(=O)c2ccc(F)cc2)cc2cnc(Nc3ccc4[nH]ncc4c3)nc21 | 10 | 5 | –
55 | Cn1c(=O)c(S(=O)(=O)c2ccc(Cl)cc2Cl)cc2cnc(Nc3ccc4[nH]ccc4c3)nc21 | 1 | 1 | –
56 | CCCn1c(=O)c(S(=O)(=O)c2ccc(F)cc2F)cc2cnc(Nc3ccc4[nH]ccc4c3)nc21 | 1 | 1 | –
57 | Cn1c(=O)c(S(=O)(=O)c2ccc(F)cc2F)cc2cnc(Nc3ccc4sccc4c3)nc21 | 0.5 | 0.5 | –
58 | Cn1c(=O)c(S(=O)(=O)c2ccc(F)cc2F)cc2cnc(Nc3ccc4c(c3)CC(=O)N4)nc21 | 15 | 100 | –
59 | Cn1c(=O)c(S(=O)(=O)Cc2ccc(F)cc2)cc2cnc(Nc3ccc4[nH]ccc4c3)nc21 | 30 | 30 | –
60 | O=c1c(S(=O)(=O)c2ccc(F)cc2F)cc2cnc(Nc3ccc4[nH]ccc4c3)nc2n1C1CC1 | 0.5 | 0.5 | –
61 | Cn1c(=O)c(S(=O)(=O)c2ccccc2)cc2cnc(Nc3ccc4[nH]ccc4c3)nc21 | 1 | 5 | 1.23
62 | Cn1c(=O)c(S(=O)(=O)c2ccc(Br)cc2)cc2cnc(Nc3ccc4[nH]ccc4c3)nc21 | 5 | 5 | –
63 | Cn1c(=O)c(S(=O)(=O)Cc2ccc(F)cc2F)cc2cnc(Nc3ccc4[nH]ccc4c3)nc21 | 1 | 1 | –
64 | Cn1c(=O)c(S(=O)(=O)c2ccccc2)cc2cnc(Nc3ccc4cc[nH]c4c3)nc21 | 10 | 10 | –
65 | O=c1c(S(=O)(=O)c2ccc(F)cc2F)cc2cnc(Nc3ccc4[nH]ccc4c3)nc2n1CC1CCCC1 | 7 | 10 | –
66 | Cn1c(=O)c(S(=O)(=O)c2ccc(F)cc2F)cc2cnc(Nc3ccc4cccc(O)c4n3)nc21 | 5 | 5 | –
